The values that follow come from paper PMC6274167, “ent-Pimarane and ent-Kaurane Diterpenes from Aldama discolor (Asteraceae) and Their Antiprotozoal Activity” (Molecules, 2016).

One data set deals with P. falciparum K-1 strain. Further details: method as in PMID 16309313. As to conditions: read-out: IC50 antiplasmodial activity; cited from earlier work.
The test system of data set [1] is Trypanosoma brucei rhodesiense (bloodstream trypomastigotes, STIB 900 strain). In words: In vitro activity against Trypanosoma brucei rhodesiense. Format: cell-based. As to conditions: for IC50: Trypanosoma brucei, read-out: IC50 T. b. rhodesiense; for SI T. b. rhodesiense: selectivity index determined with L6 cells. How it is done: (§1) As part of an extensive screening of Asteraceae from the Brazilian “Cerrado”, extracts obtained from the leaves of Aldama discolor with solvents of different polarity (n-hexane (Hex), dichloromethane (DCM), ethyl acetate (EtOAc) and methanol (MeOH)) were tested for in vitro activity against Trypanosoma brucei rhodesiense (bloodstream trypomastigotes), T. cruzi (intracellular amastigotes), Leishmania donovani (axenic amastigotes) and Plasmodium falciparum (intraerythrocytic forms). Each extract was tested at two concentrations, 2 and 10 μ g/mL, for growth inhibitory activity (% GI) against the various parasites.
(§2) In vitro tests for the activity against Trypanosoma brucei rhodesiense (bloodstream trypomastigotes, STIB 900 strain), T. cruzi (amastigotes, Tulahuen C4 strain), Leishmania donovani (amastigotes, MHOM-ET-67/L82 strain), Plasmodium falciparum (intraerythrocytic forms, NF54 IEF strain), as well as for cytotoxicity against mammalian cells (L6-cell-line from rat-skeletal myoblasts) were performed according to established protocols as reported previously, e.g, in [33].

Data set [2] has as its system Plasmodium falciparum (intraerythrocytic forms, NF54 IEF strain). In words: In vitro activity against Plasmodium falciparum. As to conditions: for SI P. falciparum: selectivity index determined with L6 cells. Format: cell-based. How it is done:
as §1, §2

Data set [3] relates to T. cruzi (amastigotes, Tulahuen C4 strain). In words: In vitro activity against T. cruzi. Format: cell-based, Trypanosoma cruzi. As to conditions: for IC50: Trypanosoma cruzi, Tulahuen C4 strain, amastigotes, geometric mean of 2 experiments ±SE (values marked a: only one experiment); for SI T. cruzi: selectivity index determined with L6 cells. How it is done: as §1, §2
Data set [4] in a line: Cytotoxicity against mammalian cells. The format is cell-based, rat. How it is done:
as §2

The subject of data set [5] is Leishmania donovani (amastigotes, MHOM-ET-67/L82 strain). In words: In vitro activity against Leishmania donovani. The format is cell-based. As to conditions: for IC50: Leishmania donovani, MHOM-ET-67/L82 strain, amastigotes, geometric mean of 2 experiments ±SE (values marked a: only one experiment), read-out: IC50 L. donovani; for SI L. donovani: selectivity index determined with L6 cells. How it is done:
as §1, §2

Data set [6] relates to trypomastigote forms of T. cruzi (Y strain). On the set-up: method as in PMID 18688888. As to conditions: in vitro, read-out: IC50 against trypomastigote forms of T. cruzi; cited from earlier work.
The test system of another data set is T.b. brucei. On the set-up: method as in PMID 21843897. As to conditions: cited from earlier work.
In the next data set the test system is T. b. rhodesiense. On the set-up: method as in PMID 24165182. As to conditions: in words; cited from earlier work.
In another data set the test system is erythrocytes. Further details: method as in PMID 15104493. As to conditions: cited from earlier work.
A further data set deals with P. falciparum strain 3D7. On the set-up: method as in PMID 15104493. As to conditions: read-out: IC50 in vitro antiplasmodial effect; cited from earlier work.
[7] abbreviates: STIB 900 strain, trypomastigotes, geometric mean of 2 experiments ±SE (values marked a: only one experiment).
Where [8] appears, read: NF54 strain, intra-erythrocytic stages, geometric mean of 2 experiments ±SE (values marked a: only one experiment), read-out: IC50 P. falciparum.
Where [9] appears, read: Plasmodium falciparum, NF54, NF54 strain, intra-erythrocytic stages, geometric mean of 2 experiments ±SE (values marked a: only one experiment), read-out: IC50 P. falciparum.
Setting [10] is: L6-cell-line from rat-skeletal myoblasts, geometric mean of 2 experiments ±SE, read-out: IC50 L6 Cells (cytotoxicity).

Entries after “also recorded” stand apart in the source; their conditions may differ. Read-outs that look alike come from different tables or passages of the source.

As to `C=CC1(C)C=C2CCC3C(C)(C)CC(O)C(O)C3(C)C2C(O)C1` (centres unmarked) [1,2,11-trihydroxypimara-8(14),15-diene], the 50% inhibitory concentration (IC50) with P. falciparum K-1 strain was 27.4 µM.
In the case of `C=CC1(C)CCC2=C(C1)C(=O)CC1C(C)(CO)CCCC21C` (single isomer, unassigned; ent-7) [Compound 2, ent-7-oxo-pimara-8,15-diene-18-ol], the half-maximal inhibitory concentration (IC50) was determined as 24.3 µM in [1] (setting [7]); 3.8 µM in data set [2] (setting [8]); 3.85 µM in data set [2] (setting [9]); 15.4 µM in [3]; 48.3 ± 5.9 µM in [4] (rat); 18.2 µM in [5]. For the same compound, the “SI T. b. rhodesiense” value in [1] stood at 2. Further, in data set [2], the “SI P. falciparum” value was 13. Further, in [3], the “SI T. cruzi” value stood at 3. Also, the “SI L. donovani” value in [5] was 3.
For the compound `CCCCCCCCCCCCCCCCOP(=O)([O-])OCC[N+](C)(C)C` [miltefosine, reference compound], in data set [5], the IC50 came to 0.049 ± 0.001 µM.
Consider `C=C[C@@]1(C)CC[C@@H]2[C@](O)(CC[C@@H]3[C@](C)(CO)CCC[C@]32C)C1` (single isomer, unassigned; ent-15) [ent-15-pimarene-8β,19-diol], for which, in data set [6], the half-maximal inhibitory concentration (IC50) is 116 µM.
As to `C=C1C(=O)C23CCC4C(C)(C)CCCC4(C)C2C(O)CC1C3` (single isomer, unassigned; ent-16) [11α-Hydroxy-ent-16-kauren-15-one], in the data set with T.b. brucei (cytotoxicity determined with a human embryonic cell line (MRC-5)), the SI is 3.2. Moreover, in the data set with T.b. brucei (read-out: IC50 against T.b. brucei), the IC50 was 0.761 µM.
Regarding `COc1cc([C@@H]2c3cc4c(cc3[C@H](O)[C@H]3COC(=O)[C@H]23)OCO4)cc(OC)c1OC` [podophyllotoxin, reference compound], in [4] (setting [10]), the IC50 was 0.008 µM.
In the case of `C=C1C(=O)O[C@@H]2/C=C(/CO)C3=CC(=O)[C@@](C)(C[C@@H](OC(=O)/C(C)=C/C)[C@@H]12)O3` [Compound 5, budlein A], the “activity against T. b. rhodesiense in vitro” value with T. b. rhodesiense is “strong anti-T. b. rhodesiense activity; also recorded: exceptionally strong activity”.
In the case of `C=CC1(C)C=C2C(O)CC3C4(C)COC(C4)CC3(C)C2CC1` (stereo not drawn) [Compound 4, ent-2S,4S-2,19-epoxy-pimara-8(14),15-diene-7β-ol], the concentration for half-maximal inhibition (IC50) turned out to be 47.3 ± 4.1 µM in data set [1] (setting [7]); 16.1 ± 6.1 µM in data set [2] (setting [9]); 58.9 µM in data set [3]; 101 ± 45.7 µM in data set [4] (rat); 21.9 µM in [5]. Moreover, in data set [1], the “SI T. b. rhodesiense” value came out at 2. Moreover, in [2], the “SI P. falciparum” value came out at 6. For the same compound, the “SI T. cruzi” value in data set [3] is given as 2. Moreover, the “SI L. donovani” value in data set [5] came to 5.
As to `C=C[C@]1(C)C=C2CC[C@H]3[C@](C)(CO)[C@@H](O)CC[C@]3(C)[C@H]2CC1` [8(14),15-isopimaradien-3β,19-diol], the effect on erythrocytes result in the data set on erythrocytes was “induced echinocytosis at low concentrations and caused pronounced cell lysis”.
`C=C1C[C@@]23CC[C@@H]4[C@](C)(CO)[C@H](O)CC[C@@]4(C)[C@@H]2CC[C@@H]1C3` (single isomer, unassigned; ent-3) [Compound 1, ent-3-α-hydroxy-kaur-16-en-18-ol]: the IC50 stood at 20.1 ± 0.5 µM in data set [1] (setting [7]); 3.5 ± 0.2 µM in data set [2] (setting [8]); 3.54 µM in [2] (setting [9]); 55.6 µM in [3]; 40.2 ± 5.5 µM in data set [4] (setting [10]); 2.5 ± 1.5 µM in [5]. In addition, in [1], the “SI T. b. rhodesiense” value was 2. Moreover, the “SI P. falciparum” value in data set [2] stood at 11. In addition, the “SI T. cruzi” value in data set [3] came to 1. In addition, the “SI L. donovani” value in data set [5] worked out at 16.
With `Nc1nc(N)nc(Nc2ccc([As]3SCC(CO)S3)cc2)n1` (centres unmarked) [melarsoprol, reference compound], the IC50 in data set [1] amounted to 0.025 ± 0.0005 µM.
Take `C=CC1(C)C=C2CCC3C(C)(C)CCC(O)C3(C)C2C(O)C1` (centres unmarked) [1,11-dihydroxypimara-8(14),15-diene]: in the data set on P. falciparum K-1 strain, the 50% inhibitory concentration (IC50) was 9.8 µM.
For `C=CC1(C)CCC2=C(C1)C(=O)CC1C2(C)CCC(O)C1(C)C` (single isomer, unassigned; ent-7) [Compound 3, ent-7-oxo-pimara-8,15-diene-3β-ol], the half-inhibitory concentration (IC50) in [2] (setting [9]) stood at 16.5 ± 4.9 µM; in data set [3], 19.4 µM; in [4] (rat), 69.3 ± 10.9 µM; in [5], 13.8 µM. Besides, the “SI P. falciparum” value in data set [2] is listed as 4. For the same compound, the “SI T. cruzi” value in [3] turned out to be 4. For the same compound, in data set [5], the “SI L. donovani” value amounted to 5.
`O=C(Cn1ccnc1[N+](=O)[O-])NCc1ccccc1` [benznidazole, reference compound] gave an IC50 in data set [3] of 0.653 ± 0.135 µM.
Regarding 3β-acetoxy-ent-8(14),15-pimaradiene, the IC50 in [6] is 149 µM.
For `C=C[C@@]1(C)CCC2=C(CC[C@H]3C(C)(C)[C@@H](O)CC[C@]23C)C1` [8(9),15-isopimaradien-3β-ol], the IC50 with P. falciparum strain 3D7 is 24.5 µM.
On to `CCN(CC)CCCC(C)Nc1ccnc2cc(Cl)ccc12` (centres unmarked) [chloroquine, reference compound], for which the IC50 in data set [2] (Plasmodium falciparum, NF54, read-out: IC50 P. falciparum) was 0.003 ± 0.001 µM.

By IC50 is commonly meant the concentration at which inhibition is half-maximal.
